Consider one compound from US20090005398A1, “Methods For The Treatment of Central Nervous System Tumors” (priority 2007, published 2009).

Series [1] can be described thus: Protein binding to human plasma proteins by equilibrium dialysis. The series is classed as in vitro ADME. The note with it: pH 7.4, equilibrium dialysis 6 h, 37° C. The protocol:
96 Well Plate (High Throughput Dialysis): Stock solution of compound was spiked into human plasma at a target concentration of 2000 ng/mL. The mixture was inverted gently several times to insure homogeneity and triplicate 50 μL aliquots were collected to verify initial concentrations. Following assembly of dialysis plate (HTDialysis membrane strips, molecular weight cut off limit of 12,000-14,000 daltons), spiked plasma (150 μL) was placed in the donor compartment of the well and Phosphate Buffered Saline pH 7.4 (150 μL) in the receiver compartment. Eight wells were set up per compound and plasma type. Plate was placed in a 37° C. incubator on a plate shaker. Following the 6 h incubation period, the plate was removed. Single 50 μL aliquots from each donor and receiver compartment (per well) were analyzed.
Sample analysis was by LC/MS/MS (results reported as Drug Peak Area/Internal Standard Peak Area ratios). Protein binding assay can also be performed using dialysis cells instead of HT Dialysis 96 well plates. In Table 1, % Protein Binding, +=>98%; ++=95-98%: +++=<95%.

The test system of the next series is A549-L. Nature of the series: Cell-Titer-Glo cell proliferation. The series is classed as cell-based. The note with it: lung, 72 h. How it is done:
(§1) Exponentially growing cell lines of different tumor origins, cultured in appropriate media containing 10% fetal bovine serum at 37° C. in a 5% CO2 incubator were plated at low density (less than 2000 cells/well) in 96-well plates. Twenty four hours post-plating, cells were treated with different concentrations of compound ranging from 10 uM to 0.04 nM. Several wells were left untreated as a control. Seventy two hours post-treatment, cell numbers were determined using 50-100 ul per well of CellTiter-Glo (Promega #G7573). Plates were incubated at room temperature for 15 minutes and the chemiluminescent signal was read on the Victor V or Envison 2100 reader.
(§2) Concentration of compound that inhibited 50% of cell growth (IC50) was determined by 4 parameter fit of data using XLfit, (value of no cell control was subtracted from all samples for background). The Cell-Titer Glo data are shown in Table 3 below and represent a compilation of several different experiments, each performed using the general parameters outlined above, although minor variations may have been employed in some instances.

A further series concerns ASPC3. Kind of series: Cell-Titer-Glo cell proliferation. Format: cell-based. The note with it: pancreas, 72 h. The protocol: as §1, §2
The next series deals with H1299. Nature of the series: Cell-Titer-Glo cell proliferation. Format: cell-based. The note with it: Homo sapiens, NCI-H1299, lung, 72 h. How it is done: as §1, §2
Another series relates to HN5. Nature of the series: Cell-Titer-Glo cell proliferation. The series is classed as cell-based. The note with it: Homo sapiens, head and neck, 72 h. The protocol: as §1, §2
A further series deals with HT29. Kind of series: Cell-Titer-Glo cell proliferation. The series is classed as cell-based. The note with it: Homo sapiens, HT-29, colon, 72 h. How it is done: as §1, §2
The next series deals with Hela. Kind of series: Cell-Titer-Glo cell proliferation. Format: cell-based. The note with it: Homo sapiens, cervix, 72 h. The protocol: as §1, §2
For the next series, the system named is LNCaP. Kind of series: Cell-Titer-Glo cell proliferation. Format: cell-based. The note with it: Homo sapiens, prostate, 72 h. How it is done:
as §1, §2

A further series has as its system MCF7. Kind of series: Cell-Titer-Glo cell proliferation. Format: cell-based. The note with it: Homo sapiens, breast, 72 h. The protocol:
as §1, §2

In a further series the test system is MDA-MB-468. Nature of the series: Cell-Titer-Glo cell proliferation. Format: cell-based. The note with it: Homo sapiens, breast, 72 h. The protocol:
as §1, §2

In the next series the test system is MX-1. Kind of series: Cell-Titer-Glo cell proliferation. Format: cell-based. The note with it: Homo sapiens, MX1, breast, 72 h. How it is done:
as §1, §2

The next series concerns PANC-1. Nature of the series: Cell-Titer-Glo cell proliferation. Format: cell-based. The note with it: Homo sapiens, pancreas, 72 h. The protocol:
as §1, §2

The subject of the next series is SKOV-3. Nature of the series: Cell-Titer-Glo cell proliferation. The series is classed as cell-based. The note with it: Homo sapiens, SK-OV-3, ovary, 72 h. The protocol:
as §1, §2

Another series concerns A172. Nature of the series: Washout assay, recovery of cell growth (MTT). The series is classed as cell-based. The note with it: A172, glioblastoma; 3 days exposure then washout. The protocol: (§3) Seven glioma cell lines that can double at least once over three days were thawed and grown to 70-80% confluency before being used in the assay. On day 1, for each cell line, 2-3×10^5 cells were seeded into each well in 6-well cell culture plates and incubated at 37° C. overnight. […] The plates were incubated at 37° C. for 3 days.
(§4) On day 5, the compound was efficiently washed four times with culture medium supplemented with 20% fetal bovine serum (FBS) and then washed once in buffered saline solution (PBS). The cells were trypsinized. For each of the concentrations, compound-treated cell lines were plated into five 96-well plates at 5000 cells per well. For the next 4 consecutive days, one plate of the cells was taken out of the incubator and cell proliferation was measured by MTT ELISA assay.
(§5) The washout assay is designed to follow the cells' recovery from exposure to the compound. Each glioma cell line was assayed at least twice. The criteria for evaluating sensitivity or resistance was Last Growth Back Concentration (LGC), if LGC<=30 nM, the cell line is considered sensitive; if LGC>=1 uM, it is considered resistant; if LGC is in between these two concentrations, the cell line is considered intermediate. Based on criteria set, all the glioma cell lines appeared to be sensitive to the compound of Example 1.

The subject of another series is H4. Nature of the series: Washout assay, recovery of cell growth (MTT). The note with it: H4, glioma; 3 days exposure then washout. The series is classed as cell-based. The protocol:
as §3, §4, §5

Another series has as its system SF-268. Nature of the series: Washout assay, recovery of cell growth (MTT). Format: cell-based. The note with it: SF-268, glioblastoma; 3 days exposure then washout. How it is done: as §3, §4, §5
The test system of the next series is SF-295. Kind of series: Washout assay, recovery of cell growth (MTT). Format: cell-based. The note with it: SF-295, glioblastoma; 3 days exposure then washout. The protocol: as §3, §4, §5
The next series has as its system SF-539. Nature of the series: Washout assay, recovery of cell growth (MTT). The series is classed as cell-based. The note with it: SF-539, astrocytoma; 3 days exposure then washout. How it is done: as §3, §4, §5
The test system of a further series is SNB-19. Kind of series: Washout assay, recovery of cell growth (MTT). Format: cell-based. The note with it: SNB-19, glioblastoma; 3 days exposure then washout. How it is done: as §3, §4, §5
Another series relates to SW1088. Kind of series: Washout assay, recovery of cell growth (MTT). The series is classed as cell-based. The note with it: SW1088, astrocytoma; 3 days exposure then washout. How it is done: as §3, §4, §5

With `C[C@@H](Oc1cc(-n2cnc3ccc(CN4CCN(C)CC4)cc32)sc1C(N)=O)c1ccccc1C(F)(F)F` [Example 1, 5-{6-[(4-Methylpiperazin-1-yl)methyl]-1H-benzimidazol-1-yl}-3-{(1R)-1-[2-(trifluoromethyl)phenyl]ethoxy}thiophene-2-carboxamide], the fraction unbound at 6 h, 2000 ng/mL in [1] is greater than 0.05. In addition, the IC50 in the series on A549-L, in the series with ASPC3, in the series with H1299, with HN5, in the series with HT29 and with Hela was less than 0.5 µM each time. Also, the IC50 in the series on LNCaP, in the series with MCF7, in the series with MDA-MB-468, in the series on MX-1, in the series on PANC-1 and in the series with SKOV-3 was less than 0.5 µM in each case. For the same compound, the “LGC (Last Growth Back Concentration)” value was less than 10 nM in the series with A172; 10 nM with H4; 10 nM with SF-268; 10 nM in the series on SF-295; 30 nM in the series with SF-539; 10 nM in the series with SNB-19. The “LGC (Last Growth Back Concentration)” value in the series on SW1088 stood at 10 nM.
